Key:
H1299 = experiment: Cellular proliferation assay (Alamar blue), H1299; format: cell-based; details: Homo sapiens, NCI-H1299; 10% FCS; 72 hours with compound; Alamar blue 4 h
Summary of the method: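 This proliferation assay on NCI-H1299 cells used an initial 24-hour compound-free incubation after seeding, followed by 72 hours of compound treatment with 10% FCS serum at 37° C. and 5% (v/v) CO2. Viable cells were quantified by a 4 h Alamar blue incubation and fluorescent plate reading at 544 nm/590 nm, and effects were expressed relative to control cells.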

A2780 = experiment: Cellular proliferation assay (Alamar blue), A2780; format: cell-based; details: Homo sapiens, 10% FCS, 72 hours with compound, Alamar blue 24 h, read-out: A2780 (cellular proliferation assay, Table 4) (converted)
Summary of the method: (§1)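 Growth inhibition measured after 72 h incubation with compound, following 24 h pre-culture at 37° C, 5% CO2 with 10% FCS. Resazurin-based read-out at 544/590 nm after 4 h (HCT-116), 6 h (U87-MG) or 24 h (A2780, MDA-MB-231); results relative to control.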

MDA-MB-231 = experiment: Cellular proliferation assay (Alamar blue), MDA-MB-231; format: cell-based; details: Homo sapiens, 10% FCS, 72 hours with compound, Alamar blue 24 h, read-out: MDA/MB231 (cellular proliferation assay, Table 4) (converted)
Summary of the method: as §1

PLK4 (h) = PLK4 (h) (Homo sapiens, UniProt O00444); experiment: PLK-4 human kinase inhibition, scintillation proximity assay (SPA); format: biochemical; details: read-out: PLK4 pIC50 (converted)
Sequence of PLK4 (h) (O00444 whole entry): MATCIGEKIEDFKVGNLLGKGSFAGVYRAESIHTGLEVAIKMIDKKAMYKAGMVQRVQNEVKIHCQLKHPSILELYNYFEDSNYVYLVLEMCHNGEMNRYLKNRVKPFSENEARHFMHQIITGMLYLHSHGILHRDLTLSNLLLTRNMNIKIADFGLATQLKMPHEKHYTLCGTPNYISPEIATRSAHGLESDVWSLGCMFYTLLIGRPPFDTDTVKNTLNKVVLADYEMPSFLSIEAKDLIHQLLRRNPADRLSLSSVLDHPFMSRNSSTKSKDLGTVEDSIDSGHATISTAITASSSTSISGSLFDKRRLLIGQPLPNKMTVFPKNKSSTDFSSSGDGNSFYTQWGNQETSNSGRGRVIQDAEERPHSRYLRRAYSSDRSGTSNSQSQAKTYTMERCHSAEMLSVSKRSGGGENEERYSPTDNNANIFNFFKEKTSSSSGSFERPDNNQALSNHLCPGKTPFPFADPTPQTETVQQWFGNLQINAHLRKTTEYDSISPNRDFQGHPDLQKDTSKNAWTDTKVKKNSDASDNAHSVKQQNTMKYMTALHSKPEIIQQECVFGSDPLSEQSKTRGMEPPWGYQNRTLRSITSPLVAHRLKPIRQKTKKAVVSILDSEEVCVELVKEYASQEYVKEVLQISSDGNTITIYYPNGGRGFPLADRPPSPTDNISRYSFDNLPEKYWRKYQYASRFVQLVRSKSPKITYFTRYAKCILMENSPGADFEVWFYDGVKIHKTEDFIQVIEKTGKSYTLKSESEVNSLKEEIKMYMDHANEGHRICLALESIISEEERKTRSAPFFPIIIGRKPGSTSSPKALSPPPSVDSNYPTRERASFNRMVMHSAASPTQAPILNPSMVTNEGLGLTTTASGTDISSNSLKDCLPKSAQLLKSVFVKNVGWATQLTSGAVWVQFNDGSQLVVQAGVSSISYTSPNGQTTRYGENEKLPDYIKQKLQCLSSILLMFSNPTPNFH

CDK4/CyclinD1 (h) = CDK4/CyclinD1 (h) (Homo sapiens, UniProt P11802); experiment: CDK4/CyclinD1 human kinase inhibition, SPA with GST-pRb substrate; format: biochemical; details: read-out: CDK4 pIC50 (converted)
Sequence of CDK4/CyclinD1 (h) (P11802 whole entry): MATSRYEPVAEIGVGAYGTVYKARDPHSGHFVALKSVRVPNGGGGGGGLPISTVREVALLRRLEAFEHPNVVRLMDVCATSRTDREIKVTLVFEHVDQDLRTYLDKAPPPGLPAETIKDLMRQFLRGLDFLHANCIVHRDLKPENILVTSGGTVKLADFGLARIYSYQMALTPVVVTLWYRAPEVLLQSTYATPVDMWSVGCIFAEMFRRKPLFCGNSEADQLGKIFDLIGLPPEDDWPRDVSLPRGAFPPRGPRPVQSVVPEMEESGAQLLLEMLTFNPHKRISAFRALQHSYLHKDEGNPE
Sequence of CDK4/CyclinD1 (h) (P24385 whole entry partner): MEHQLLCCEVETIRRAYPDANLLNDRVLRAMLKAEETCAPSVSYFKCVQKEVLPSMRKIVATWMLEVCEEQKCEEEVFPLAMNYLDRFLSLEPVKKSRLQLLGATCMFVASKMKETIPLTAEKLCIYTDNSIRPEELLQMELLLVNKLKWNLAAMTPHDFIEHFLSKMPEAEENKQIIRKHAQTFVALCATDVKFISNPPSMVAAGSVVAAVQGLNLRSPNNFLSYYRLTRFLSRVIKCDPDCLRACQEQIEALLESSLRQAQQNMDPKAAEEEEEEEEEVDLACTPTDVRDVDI
Summary of the method: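 Scintillation proximity format: after EDTA/Triton stop containing glutathione SPA beads, 33P incorporation was counted. The reaction ran 60 min at room temperature in Hepes pH 7.5 with NaF, MgCl2, DTT, using 2.5 μg/ml human CDK4/CyclinD1, 40 μg/ml GST-pRb substrate and 2 nM [γ-33P]ATP.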

PLK1 T210D (h) = PLK1 T210D (h) (Homo sapiens, UniProt P53350, T210D); experiment: PLK1 human kinase inhibition, SPA; format: biochemical; details: read-out: PLK1 pIC50 (converted)
Sequence of PLK1 T210D (h) (P53350 whole entry T210D): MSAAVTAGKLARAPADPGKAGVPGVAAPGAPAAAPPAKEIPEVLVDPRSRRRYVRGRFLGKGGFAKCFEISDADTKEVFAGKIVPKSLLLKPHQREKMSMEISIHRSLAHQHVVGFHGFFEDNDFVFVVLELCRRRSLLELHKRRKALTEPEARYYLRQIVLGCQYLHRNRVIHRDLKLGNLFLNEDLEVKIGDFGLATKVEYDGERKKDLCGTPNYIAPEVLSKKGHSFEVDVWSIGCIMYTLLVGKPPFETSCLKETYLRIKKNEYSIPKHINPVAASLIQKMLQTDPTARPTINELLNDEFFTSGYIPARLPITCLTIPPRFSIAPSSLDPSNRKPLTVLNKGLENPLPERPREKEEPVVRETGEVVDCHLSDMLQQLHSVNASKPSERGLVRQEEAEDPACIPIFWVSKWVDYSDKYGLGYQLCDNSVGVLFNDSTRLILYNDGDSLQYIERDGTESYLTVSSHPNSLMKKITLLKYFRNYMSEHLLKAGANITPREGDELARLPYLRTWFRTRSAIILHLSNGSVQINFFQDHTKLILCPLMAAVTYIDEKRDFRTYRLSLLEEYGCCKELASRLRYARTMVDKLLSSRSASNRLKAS
Summary of the method: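 Kinase incubated 40 min at room temperature with 0.1 μM ATP (2 nM [γ-33P]ATP tracer), 2 μM biotinylated peptide, pH 8.0 Hepes buffer with 2 mM MnCl2 and 1 mM DTT; enzyme at 0.125 ng/ml. Stopped with EDTA; 33P-peptide bound to streptavidin scintillant beads and imaged.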

GSK3β (h) = GSK3β (h) (Homo sapiens, UniProt P49841); experiment: GSK-3β human kinase inhibition, SPA; format: biochemical; details: read-out: GSK3b pIC50 (converted)
Sequence of GSK3β (h) (P49841 whole entry): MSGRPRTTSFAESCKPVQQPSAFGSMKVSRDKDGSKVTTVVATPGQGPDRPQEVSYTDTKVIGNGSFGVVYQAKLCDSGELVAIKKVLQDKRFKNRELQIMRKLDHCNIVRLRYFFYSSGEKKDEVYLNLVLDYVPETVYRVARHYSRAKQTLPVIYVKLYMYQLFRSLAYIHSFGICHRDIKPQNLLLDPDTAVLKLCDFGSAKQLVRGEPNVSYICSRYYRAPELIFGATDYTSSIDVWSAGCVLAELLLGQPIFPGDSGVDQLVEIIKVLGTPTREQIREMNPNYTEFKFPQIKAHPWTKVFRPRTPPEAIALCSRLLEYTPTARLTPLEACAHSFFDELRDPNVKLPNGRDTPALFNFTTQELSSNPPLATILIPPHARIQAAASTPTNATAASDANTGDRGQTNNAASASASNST
Summary of the method: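 Radiometric: 33P-labelled peptide captured on streptavidin SPA beads after EDTA stop and imaged on Leadseeker. Reaction ran 1 h at RT, 1 μM cold ATP with 2 nM [γ-33P]ATP, 1 μM biotin-peptide substrate, human GSK3β 1 μg/ml, pH 7.4 Tris buffer.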

U87-MG = experiment: Cellular proliferation assay (Alamar blue), U87-MG; format: cell-based; details: Homo sapiens, U-87 MG; 10% FCS; 72 hours with compound; Alamar blue 6 h; read-out: U87-MG (cellular proliferation assay, Table 4) (converted)
Summary of the method: as §1

PLK2 (h) = PLK2 (h) (Homo sapiens, UniProt Q9NYY3); experiment: PLK2 human kinase inhibition, SPA; format: biochemical; details: read-out: PLK2 pIC50 (converted)
Sequence of PLK2 (h) (Q9NYY3 whole entry): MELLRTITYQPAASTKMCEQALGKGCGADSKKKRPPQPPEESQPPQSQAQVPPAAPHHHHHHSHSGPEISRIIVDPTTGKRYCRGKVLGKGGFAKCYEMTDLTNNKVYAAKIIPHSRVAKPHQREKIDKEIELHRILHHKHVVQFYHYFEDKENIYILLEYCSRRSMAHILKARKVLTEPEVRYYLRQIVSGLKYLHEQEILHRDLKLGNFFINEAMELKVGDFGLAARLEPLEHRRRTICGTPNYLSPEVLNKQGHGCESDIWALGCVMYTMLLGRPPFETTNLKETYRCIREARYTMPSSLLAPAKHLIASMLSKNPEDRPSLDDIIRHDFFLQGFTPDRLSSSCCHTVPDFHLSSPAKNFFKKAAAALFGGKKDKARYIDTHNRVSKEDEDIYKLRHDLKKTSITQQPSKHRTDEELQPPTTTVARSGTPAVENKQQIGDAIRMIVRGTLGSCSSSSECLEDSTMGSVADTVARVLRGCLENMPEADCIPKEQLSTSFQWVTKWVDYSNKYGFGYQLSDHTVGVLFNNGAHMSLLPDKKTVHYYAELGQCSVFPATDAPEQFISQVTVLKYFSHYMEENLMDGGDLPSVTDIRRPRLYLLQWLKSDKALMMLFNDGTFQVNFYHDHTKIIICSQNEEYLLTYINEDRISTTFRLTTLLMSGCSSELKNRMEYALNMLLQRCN
Summary of the method: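 33P incorporation into a biotinylated peptide (2 μM) was captured on streptavidin PVT beads and imaged on Leadseeker. Enzyme at 30 μg/ml, ATP 0.1 μM with 2 nM [γ-33P]ATP, Hepes pH 8.0 with MnCl2 and DTT. Incubation was 20 min at room temperature.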

HCT-116 = experiment: Cellular proliferation assay (Alamar blue), HCT-116; format: cell-based; details: Homo sapiens, 10% FCS, 72 hours with compound, Alamar blue 4 h
Summary of the method: as §1

SMILES	IC50 (H1299)	IC50 (A2780)	IC50 (MDA-MB-231)	IC50 (PLK4 (h))	IC50 (CDK4/CyclinD1 (h))	IC50 (PLK1 T210D (h))	IC50 (GSK3β (h))	IC50 (U87-MG)	IC50 (PLK2 (h))	IC50 (HCT-116)
O=C1NCc2cccc(c2)-c2ccnc(n2)Nc2cccc(c2)CN2C[C@@H](O)C[C@@H]12 [Compound 45]	1.17 µM	1.66 µM	6.76 µM	0.417 µM	0.933 µM	> 10 µM	0.0724 µM	0.912 µM	> 10 µM	0.295 µM
CN1CCC(NC(=O)c2ccc3cc2CN2CCC[C@H]2C(=O)NCc2cccc(c2)-c2ccnc(n2)N3)CC1 [Compound 47]	9.55 µM	3.72 µM	5.13 µM	0.646 µM	1.2 µM	> 10 µM	0.398 µM	7.08 µM	> 10 µM	2.45 µM
O=C1NCc2ccc(cc2)-c2ccnc(n2)Nc2ccc(N3CCOCC3)c(c2)CN2CCC[C@@H]12 [Compound 49]	> 10 µM	4.07 µM	> 10 µM	5.89 µM	> 10 µM	> 10 µM	> 10 µM	1.74 µM	> 10 µM	> 10 µM
O=C1NCc2cccc(c2)-c2ccnc(n2)Nc2cc(ccc2Cl)CN2CCC[C@@H]12 [Compound 51]	> 10 µM	> 10 µM	> 10 µM	> 10 µM	> 10 µM	> 10 µM	> 10 µM	> 10 µM	> 10 µM	> 10 µM
O=C1NCc2cccc(c2)-c2ccnc(n2)Nc2cc(ccc2Cl)CN2C[C@H](O)C[C@@H]12 [Compound 52]	> 10 µM	> 10 µM	> 10 µM	> 10 µM	> 10 µM	> 10 µM	> 10 µM	> 10 µM	> 10 µM	> 10 µM
O=C1NCc2cccc(c2)-c2ccnc(n2)Nc2ccc(cc2)CN2CCC[C@@H]12 [Compound 54]	> 10 µM	> 10 µM	> 10 µM	> 10 µM	7.41 µM	> 10 µM	> 10 µM	> 10 µM	> 10 µM	> 10 µM
O=C1NCc2cccc(c2)-c2ccnc(n2)Nc2ccc(cc2)CN2C[C@H](O)C[C@@H]12 [Compound 55]	> 10 µM	> 10 µM	> 10 µM	> 10 µM	> 10 µM	> 10 µM	> 10 µM	> 10 µM	> 10 µM	> 10 µM
O=C1NCc2ccc(cc2)-c2ccnc(n2)Nc2ccc(N3CCOCC3)c(c2)CN2C[C@H](O)C[C@@H]12 [Compound 56]	> 10 µM	> 10 µM	> 10 µM	~10 µM	> 10 µM	> 10 µM	> 10 µM	> 10 µM	> 10 µM	> 10 µM
O=C1NCc2cccc(c2)-c2ccnc(n2)Nc2ccccc2CN2CCC[C@@H]12 [Compound 57]	> 10 µM	> 10 µM	> 10 µM	> 10 µM	> 10 µM	> 10 µM	> 10 µM	> 10 µM	> 10 µM	> 10 µM
CC(C)(C)O[C@@H]1C[C@H]2C(=O)NCc3cccc(c3)-c3ccnc(n3)Nc3ccccc3CN2C1 [Compound 58]	> 10 µM	> 10 µM	> 10 µM	> 10 µM	> 10 µM	> 10 µM	> 10 µM	> 10 µM	> 10 µM	> 10 µM
COc1cc2cc(c1)Nc1nccc(n1)-c1ccc(cc1)CN(C)CCNC(=O)C1CCN(CC1)C2 [Compound 62]	> 10 µM	5.89 µM	9.12 µM	0.871 µM	> 10 µM	> 10 µM	1.91 µM	6.92 µM	> 10 µM	2.75 µM
CC(C)Nc1cc2cc(c1)Nc1nccc(n1)-c1ccc(cc1)CN(C)CCCNC(=O)C1CCN(CC1)C2 [Compound 65]	> 10 µM	> 10 µM	> 10 µM	1.23 µM	> 10 µM	> 10 µM	3.24 µM	7.24 µM	> 10 µM	> 10 µM
COc1cc2cc(c1)Nc1nccc(n1)-c1ccc(cc1)CN(C)CCCNC(=O)C1CCN(CC1)C2 [Compound 66]	> 10 µM	6.31 µM	8.32 µM	1.35 µM	> 10 µM	> 10 µM	1.07 µM	2.88 µM	> 3.02 µM	1.02 µM
COc1cc2cc(c1)Nc1nccc(n1)-c1ccc(OC)c(c1)CN(C)CCNC(=O)C1CCN(CC1)C2 [Compound 67]	> 10 µM	> 10 µM	> 10 µM	1.51 µM	> 10 µM	> 10 µM	3.09 µM	> 10 µM	> 3.02 µM	> 10 µM
COc1cc2cc(c1)Nc1nccc(n1)-c1ccc(OC)c(c1)CN(C)CCCNC(=O)C1CCN(CC1)C2 [Compound 73]	> 10 µM	> 10 µM	> 10 µM	2.57 µM	> 10 µM	> 10 µM	> 10 µM	5.13 µM	> 10 µM	3.09 µM
COc1ccc2cc1CN(C)CCNC(=O)C1CCN(CC1)Cc1cc(NCCc3ccccc3)cc(c1)Nc1nccc-2n1 [Compound 74]	> 10 µM	3.02 µM	5.89 µM	2.95 µM	> 10 µM	> 10 µM	> 10 µM	3.98 µM	> 10 µM	4.68 µM
O=C1NCCOc2cccc(c2)-c2ccnc(n2)Nc2ccc(N3CCOCC3)c(c2)CN2CCC1CC2 [Compound 94]	8.13 µM	> 10 µM	> 10 µM	2.63 µM	3.63 µM	> 10 µM	2.95 µM	> 10 µM	> 10 µM	9.12 µM
O=C1NCc2cccc(c2)-c2ccnc(n2)Nc2ccc(N3CCOCC3)c(c2)CN2CCC1CC2 [Compound 95]	> 10 µM	> 10 µM	> 10 µM	6.61 µM	1.29 µM	> 10 µM	3.72 µM	> 10 µM	> 10 µM	> 10 µM
C[C@@H]1NCCc2cccc(c2)-c2ccnc(n2)Nc2ccc(N3CCOCC3)c(c2)CNC1=O [Compound 100]	2.95 µM	3.02 µM	3.47 µM	1.15 µM	0.2 µM	> 10 µM	0.0759 µM	0.603 µM	> 10 µM	0.724 µM
C[C@@H]1NCc2cccc(c2)-c2ccnc(n2)Nc2ccc(N3CCOCC3)c(c2)CNC1=O [Compound 101]	6.61 µM	4.68 µM	8.13 µM	1.82 µM	2.57 µM	> 10 µM	0.182 µM	5.01 µM	> 10 µM	2.69 µM
O=C1CN2CCN(CC2)Cc2cc(ccc2N2CCOCC2)Nc2nccc(n2)-c2cccc(c2)OCCN1 [Compound 102]	1.15 µM	6.46 µM	6.61 µM	0.794 µM	8.13 µM	> 10 µM	0.24 µM	3.09 µM	> 10 µM	1.29 µM
